{
  "source": "patent US20250195628A1",
  "about": "“ANALYTICAL METHOD AND THERAPEUTICAL AGENT FOR USE IN COMBINATION WITH L-ASPARAGINASE IN TUMOUR THERAPY” (Medizinische Hochschule Hannover, priority 2022, published 2025)",
  "key": {"[1]": {"system": "Cas9-expressing Jurkat cells", "experiment": "Cell viability after UBR2 knock-out by sgRNA and L-asparaginase treatment, Jurkat", "type": "cell-based, human", "settings": "100 U/L L-asparaginase, 48 h, versus sgAAVS1, FIG. 4A", "description": "(§1) Cas9-expressing Jurkat cells or T-ALL cells (CCRF-CEM) were treated with sgRNA that specifically knocked-out UBR2 (sgUBR2 #3, […], SEQ ID NO: 3) or control sgRNA directed against the safe harbor control locus AAVS1 (sgAAVS1, 5′-[…]-3′, SEQ ID NO: 4), and after knock-out of UBR2 cells were incubated under cell-culture conditions with 100 U/L L-asparaginase (Asp) or PBS as control agent (Vehicle). Cell viability was analysed by Trypan blue exclusion after 48 h of incubation.\n(§2) FIG. 4A for Jurkat cells, FIG. 4B for the T-ALL cells depict the cell viability normalized to the cell viability for Vehicle. […] P-values reflect the comparison of control inhibitor (AAVS1) and inhibitor of UBR2 (sgUBR2), calculated using a two-way ANOVA with Sidak's adjustments for multiple comparisons."}, "T-ALL cells (CCRF-CEM)": {"system": "T-ALL cells (CCRF-CEM)", "experiment": "Cell viability after UBR2 knock-out by sgRNA and L-asparaginase treatment, CCRF-CEM", "type": "cell-based, human", "settings": "100 U/L L-asparaginase, 48 h, versus sgAAVS1, FIG. 4B", "description": "as §1, §2"}},
  "data": [
    {"substance": "sgUBR2 #3: sgRNA that specifically knocked-out UBR2, GAAACTTGAAATAGTCTAAA, SEQ ID NO: 3 (listed as DNA, chemistry not given here)", "values": [
      {"measurement": "effect on sensitivity for L-asparaginase (cell viability normalized to Vehicle)", "setting": "[1]", "value": "increased the sensitivity"},
      {"measurement": "effect on sensitivity for L-asparaginase (cell viability normalized to Vehicle)", "setting": "T-ALL cells (CCRF-CEM)", "value": "increased the sensitivity"}
    ]}
  ]
}
